According to ChEMBL document CHEMBL1154795, “Aptamers as a model for functional evaluation of LNA and 2'-amino LNA” (Bioorg Med Chem Lett, 2009):
pKd: −log10 of the molar value.

Assay: Binding affinity to avidin by surface plasmon resonance assay

Structure (SMILES) | pKd
Cc1cn([C@@H]2O[C@H](COP(=O)(O)O[C@H]3[C@@H](O)[C@H](n4ccc(N)nc4=O)O[C@@H]3COP(=O)(O)O[C@H]3[C@@H](O)[C@H](n4cnc5c(=O)[nH]c(N)nc54)O[C@@H]3COP(=O)(O)O[C@H]3[C@@H](O)[C@H](n4cnc5c(=O)[nH]c(N)nc54)O[C@@H]3CO)[C@@H](OP(=O)(O)OC[C@H]3O[C@@H](n4cnc5c(N)ncnc54)[C@H](O)[C@@H]3OP(=O)(O)OC[C@H]3O[C@@H](n4cnc5c(N)ncnc54)[C@H](O)[C@@H]3OP(=O)(O)OC[C@H]3O[C@@H](n4cc(C)c(=O)[nH]c4=O)[C@H](O)[C@@H]3OP(=O)(O)OC[C@H]3O[C@@H](n4cnc5c(N)ncnc54)[C@H](O)[C@@H]3OP(=O)(O)OC[C@H]3O[C@@H](n4cnc5c(=O)[nH]c(N)nc54)[C@H](O)[C@@H]3OP(=O)(O)OC[C@H]3O[C@@H](n4cnc5c(N)ncnc54)[C@H](O)[C@@H]3OP(=O)(O)OC[C@H]3O[C@@H](n4ccc(N)nc4=O)[C@H](O)[C@@H]3OP(=O)(O)OC[C@H]3O[C@@H](n4ccc(N)nc4=O)[C@H](O)[C@@H]3OP(=O)(O)OC[C@H]3O[C@@H](n4cc(C)c(=O)[nH]c4=O)[C@H](O)[C@@H]3OP(=O)(O)OC[C@H]3O[C@@H](n4cnc5c(=O)[nH]c(N)nc54)[C@H](O)[C@@H]3OP(=O)(O)OC[C@H]3O[C@@H](n4cnc5c(=O)[nH]c(N)nc54)[C@H](O)[C@@H]3OP(=O)(O)OC[C@H]3O[C@@H](n4cnc5c(=O)[nH]c(N)nc54)[C@H](O)[C@@H]3OP(=O)(O)OC[C@H]3O[C@@H](n4cnc5c(=O)[nH]c(N)nc54)[C@H](O)[C@@H]3OP(=O)(O)OC[C@H]3O[C@@H](n4cc(C)c(=O)[nH]c4=O)[C@H](O)[C@@H]3OP(=O)(O)OC[C@H]3O[C@@H](n4cc(C)c(=O)[nH]c4=O)[C@H](O)[C@@H]3OP(=O)(O)OC[C@H]3O[C@@H](n4cnc5c(=O)[nH]c(N)nc54)[C@H](O)[C@@H]3OP(=O)(O)OC[C@H]3O[C@@H](n4cnc5c(=O)[nH]c(N)nc54)[C@H](O)[C@@H]3OP(=O)(O)O)[C@H]2O)c(=O)[nH]c1=O | 8.01
COP(=O)(O)O[C@H]1[C@@H](O)[C@H](n2cnc3c(=O)[nH]c(N)nc32)O[C@@H]1COP(=O)(O)O[C@H]1[C@@H](O)[C@H](n2cnc3c(=O)[nH]c(N)nc32)O[C@@H]1COP(=O)(O)O[C@H]1[C@@H](O)[C@H](n2cc(C)c(=O)[nH]c2=O)O[C@@H]1COP(=O)(O)O[C@H]1[C@H]2NC[C@]1(COP(=O)(O)O[C@H]1[C@@H](O)[C@H](n3cnc4c(=O)[nH]c(N)nc43)O[C@@H]1COP(=O)(O)O[C@H]1[C@@H](O)[C@H](n3cnc4c(=O)[nH]c(N)nc43)O[C@@H]1COP(=O)(O)O[C@H]1[C@@H](O)[C@H](n3cnc4c(=O)[nH]c(N)nc43)O[C@@H]1COP(=O)(O)O[C@H]1[C@@H](O)[C@H](n3cnc4c(=O)[nH]c(N)nc43)O[C@@H]1COP(=O)(O)O[C@H]1[C@@H](O)[C@H](n3cc(C)c(=O)[nH]c3=O)O[C@@H]1COP(=O)(O)O[C@H]1[C@@H](O)[C@H](n3ccc(N)nc3=O)O[C@@H]1COP(=O)(O)O[C@H]1[C@@H](O)[C@H](n3ccc(N)nc3=O)O[C@@H]1COP(=O)(O)O[C@H]1[C@@H](O)[C@H](n3cnc4c(N)ncnc43)O[C@@H]1COP(=O)(O)O[C@H]1[C@@H](O)[C@H](n3cnc4c(=O)[nH]c(N)nc43)O[C@@H]1COP(=O)(O)O[C@H]1[C@@H](O)[C@H](n3cnc4c(N)ncnc43)O[C@@H]1COP(=O)(O)O[C@H]1[C@@H](O)[C@H](n3cc(C)c(=O)[nH]c3=O)O[C@@H]1COP(=O)(O)O[C@H]1[C@@H](O)[C@H](n3cnc4c(N)ncnc43)O[C@@H]1COP(=O)(O)O[C@H]1[C@@H](O)[C@H](n3cnc4c(N)ncnc43)O[C@@H]1COP(=O)(O)O[C@H]1[C@@H](O)[C@H](n3cc(C)c(=O)[nH]c3=O)O[C@@H]1COP(=O)(O)O[C@H]1[C@@H](O)[C@H](n3ccc(N)nc3=O)O[C@@H]1COP(=O)(O)O[C@H]1[C@H]3OC[C@]1(COP(=O)(O)O[C@H]1[C@@H](O)[C@H](n4cnc5c(=O)[nH]c(N)nc54)O[C@@H]1CO)O[C@H]3n1cnc3c(=O)[nH]c(N)nc31)O[C@H]2n1cc(C)c(=O)[nH]c1=O | 8.38
Cc1cn([C@@H]2O[C@H](COP(=O)(O)O[C@H]3[C@@H](O)[C@H](n4ccc(N)nc4=O)O[C@@H]3COP(=O)(O)O[C@H]3[C@@H](O)[C@H](n4cnc5c(=O)[nH]c(N)nc54)O[C@@H]3COP(=O)(O)O[C@H]3[C@@H](O)[C@H](n4cnc5c(=O)[nH]c(N)nc54)O[C@@H]3CO)[C@@H](OP(=O)(O)OC[C@H]3O[C@@H](n4cnc5c(N)ncnc54)[C@H](O)[C@@H]3OP(=O)(O)OC[C@H]3O[C@@H](n4cnc5c(N)ncnc54)[C@H](O)[C@@H]3OP(=O)(O)OC[C@H]3O[C@@H](n4cc(C)c(=O)[nH]c4=O)[C@H](O)[C@@H]3OP(=O)(O)OC[C@H]3O[C@@H](n4cnc5c(N)ncnc54)[C@H](O)[C@@H]3OP(=O)(O)OC[C@H]3O[C@@H](n4cnc5c(=O)[nH]c(N)nc54)[C@H](O)[C@@H]3OP(=O)(O)OC[C@H]3O[C@@H](n4cnc5c(N)ncnc54)[C@H](O)[C@@H]3OP(=O)(O)OC[C@H]3O[C@@H](n4ccc(N)nc4=O)[C@H](O)[C@@H]3OP(=O)(O)OC[C@H]3O[C@@H](n4ccc(N)nc4=O)[C@H](O)[C@@H]3OP(=O)(O)OC[C@H]3O[C@@H](n4cc(C)c(=O)[nH]c4=O)[C@H](O)[C@@H]3OP(=O)(O)OC[C@H]3O[C@@H](n4cnc5c(=O)[nH]c(N)nc54)[C@H](O)[C@@H]3OP(=O)(O)OC[C@H]3O[C@@H](n4cnc5c(=O)[nH]c(N)nc54)[C@H](O)[C@@H]3OP(=O)(O)O)[C@H]2O)c(=O)[nH]c1=O | 7.88
Cc1cn([C@@H]2O[C@H](COP(=O)(O)O[C@H]3[C@@H](O)[C@H](n4ccc(N)nc4=O)O[C@@H]3COP(=O)(O)O[C@H]3[C@H]4OC[C@]3(COP(=O)(O)O[C@H]3[C@@H](O)[C@H](n5cnc6c(=O)[nH]c(N)nc65)O[C@@H]3CO)O[C@H]4n3cnc4c(=O)[nH]c(N)nc43)[C@@H](OP(=O)(O)OC[C@H]3O[C@@H](n4cnc5c(N)ncnc54)[C@H](O)[C@@H]3OP(=O)(O)OC[C@H]3O[C@@H](n4cnc5c(N)ncnc54)[C@H](O)[C@@H]3OP(=O)(O)OC[C@H]3O[C@@H](n4cc(C)c(=O)[nH]c4=O)[C@H](O)[C@@H]3OP(=O)(O)OC[C@H]3O[C@@H](n4cnc5c(N)ncnc54)[C@H](O)[C@@H]3OP(=O)(O)OC[C@H]3O[C@@H](n4cnc5c(=O)[nH]c(N)nc54)[C@H](O)[C@@H]3OP(=O)(O)OC[C@H]3O[C@@H](n4cnc5c(N)ncnc54)[C@H](O)[C@@H]3OP(=O)(O)OC[C@H]3O[C@@H](n4ccc(N)nc4=O)[C@H](O)[C@@H]3OP(=O)(O)OC[C@H]3O[C@@H](n4ccc(N)nc4=O)[C@H](O)[C@@H]3OP(=O)(O)OC[C@H]3O[C@@H](n4cc(C)c(=O)[nH]c4=O)[C@H](O)[C@@H]3OP(=O)(O)OC[C@H]3O[C@@H](n4cnc5c(=O)[nH]c(N)nc54)[C@H](O)[C@@H]3OP(=O)(O)OC[C@H]3O[C@@H](n4cnc5c(=O)[nH]c(N)nc54)[C@H](O)[C@@H]3OP(=O)(O)OC[C@H]3O[C@@H](n4cnc5c(=O)[nH]c(N)nc54)[C@H](O)[C@@H]3OP(=O)(O)OC[C@H]3O[C@@H](n4cnc5c(=O)[nH]c(N)nc54)[C@H](O)[C@@H]3OP(=O)(O)OC[C@H]3O[C@@H](n4cc(C)c(=O)[nH]c4=O)[C@H](O)[C@@H]3OP(=O)(O)OC[C@@]34CN[C@@H]([C@H](n5cc(C)c(=O)[nH]c5=O)O3)[C@@H]4OP(=O)(O)OC[C@H]3O[C@@H](n4cnc5c(=O)[nH]c(N)nc54)[C@H](O)[C@@H]3OP(=O)(O)OC[C@H]3O[C@@H](n4cnc5c(=O)[nH]c(N)nc54)[C@H](O)[C@@H]3OP(=O)(O)O)[C@H]2O)c(=O)[nH]c1=O | 8.30
